# Where two headings read alike, the source gives them in different places. Bridge positions count the residues as written; N and C are the ends. Square brackets hold non-standard residues; d marks the D form. Ends that are not written are not given here. Abu = CC[C@H](N)C(=O)O
# Columns and labels:
# [1] = system: S. Typhimurium (ATCC 14028); type: cell-based, Salmonella enteric serovar Typhimurium
# Experimental: (§1) The minimum inhibitory concentrations (MIC) of AvBDs were determined according to the guidelines of the Clinical and Laboratory Standards Institute (CLSI). The Muller Hinton II broth used in standard MIC assays contained 20–25 mg/L of calcium and 10–12.5 mg/L of magnesium. Modified MICs of AvBDs were also determined under a low-salt and low-nutrient condition by using 100× diluted Muller Hinton II broth containing 0.2 mg/L of calcium, 0.1 mg/L magnesium and 5 mM (292 mg/L) NaCl. MIC obtained under the low-salt and low-nutrient condition was referred to as MIC-ls. AvBD peptides were two-fold serially diluted (2 to 256 μg/ml) in a 96-well microtiter plate. An equal volume (μl) of bacterial suspension was added to each well of the plate. The final bacterial concentration in the wells was 5 × 10^5 CFU/ml. […] To complement MIC-ls assays, the minimum bactericidal concentrations (MBC) were evaluated by sub-culturing the contents of the first two clear wells obtained in the MIC-ls assay onto LB agar plates. All assays were conducted in triplicate. The lowest peptide concentration inhibiting more than 99% of bacterial growth was defined as MBC-ls. AvBD analogues were regarded as bactericidal if the MBC was no more than four times the MIC [29].
# [2] = system: P. aeruginosa (ATCC 27853); type: cell-based, Pseudomonas aeruginosa
# Experimental: as §1
# CHO-K1 cells = assay: MTT cell cytotoxicity assay; type: cell-based; conditions: 256 μg/ml; 4, 12, 24 and 48 hours; Student t-test treated vs untreated; n = 3; Figure S1
# Experimental: Chicken macrophage cell lines MQ-NCSU and HD11 were maintained in RPMI-1640 media supplemented with 10% fetal bovine serum (FBS), 2% chicken serum, 100 U/ml penicillin and 100 μg/ml streptomycin (Sigma-Aldrich) at 37 °C in humidified air with 5% CO2. CHO-K1 cells were cultured in the same media without 2% chicken serum. For CCR2-transfected CHO-K1 cells, the medium was supplemented with 500 μg/ml G418 was added (Sigma-Aldrich). Murine immature dendritic cell line JAWSII (ATCC CRL-11904™) was cultured in Alpha minimum essential medium containing 4 mM L-glutamine, 1 mM sodium pyruvate, 5 ng/ml murine Granulocyte macrophage colony-stimulating factor (GM-CSF), 20% FBS, 100 U/ml penicillin and 100 μg/ml streptomycin at 37 °C in humidified air with 5% CO2. The cell cytotoxicity was determined using the MTT (3-(4, 5-dimethylthiazol-2-yl)-2, 5-diphenyltetrazolium bromide metabolic activity assay according to the manufacturer’s instruction (Thermo Fisher Scientific). Briefly, cells (5 × 10^3 cells/well) were seeded in 96-well tissue culture plates, incubated overnight and treated with AvBDs at concentrations of 4, 16, 64 and 256 μg/ml for 4, 12, 24 and 48 h at 37 °C. After treatment, 20 μl of 12 mM MTT solution was added to each well. The plate was incubated for 4 h and read at 540 nm. Viability was expressed as percentage of viable cells relative to the untreated control. The experiments were performed in triplicate.
# [3] = system: mouse immature dendritic JAWSII cells; assay: Chemotaxis assay, 48-well microchemotaxis chamber; type: cell-based; conditions: for chemotactic activity for JAWSII cells (in words): Fig. 9
# Experimental: Migration of JAWSII and CCR2-CHO-K1 cells in response to AvBD-12 analogues was determined using a 48-well microchemotaxis chamber technique as previously described. Chemotaxis buffer (Minimum Essential Medium containing 0.1% BSA, 100U/ml penicillin, and 100 μg/ml streptomycin) and bacterial peptide N-Formyl-methionyl-leucyl-phenylalanine (fMLF, Sigma-Aldrich) were included as negative and positive controls, respectively. The results were presented as chemotactic index (C.I.). C.I. = number of migrated cells induced by AvBDs / number of migrated cells induced by chemotactic buffer. The assay was repeated five times.
# S. aureus (ATCC 29213) = type: cell-based, Staphylococcus aureus
# Experimental: as §1
# E. coli (ATCC 25922) = type: cell-based, Escherichia coli
# Experimental: as §1
# [4] = system: Salmonella enteric serovar Typhimurium (ATCC 14028); type: cell-based; conditions: for percent of killing of S. Typhimurium / killing activity against S. Typhimurium retained at 150 mM NaCl: ATCC 14028, 2 h; for percent of killing of S. Typhimurium: 16 μg/ml; for killing activity against S. Typhimurium retained at 150 mM NaCl: 32 μg/ml
# Experimental: (§2) Escherichia coli (ATCC 25922), Pseudomonas aeruginosa (ATCC 27853), Salmonella enteric serovar Typhimurium (ATCC 14028) and Staphylococcus aureus (ATCC 29213) were used to assess the antimicrobial activity of AvBD analogues. All bacterial strains were grown on Luria-Bertani (LB) agar plates or Trypticase Soy Agar with 5% Sheep Blood (TSA, Thermo Fisher Scientific) plates at 37 °C. Antimicrobial activity was determined by a colony counting assay. In brief, bacteria were resuspended in 100-fold diluted Mueller Hinton II broth with 5 mM NaCl (minimal growth medium) to obtain a final bacterial concentration of 2 × 10^5 CFU/ml. Twenty-five microliters of bacterial suspension and 25 μl of AvBD analogue solution were mixed in the wells of a 96-well polypropylene microtiter plate (Nunc™, Thermo Fisher Scientific). The final peptide concentrations were 2, 4, 8, 16, 32, 64 and 128 μg/ml. The minimal growth medium without AvBD peptide was included as a negative control. The bacterial-peptide mixtures were incubated at 37 °C for 2 h, ten-fold serially diluted and plated on LB agar plates. The numbers of bacteria colonies were enumerated after 16 h of incubation at 37 °C. Antimicrobial activity was expressed as percent of killing using the following formula: (CFUcontrol - CFUtreated) / CFUcontrol × 100%. To assess the resistance of AvBD analogues to sodium chloride (NaCl), antimicrobial assays were carried out in the presence of 5 mM, 50 mM, 100 mM or 150 mM NaCl. All assays were performed in triplicate.
# [5] = system: Staphylococcus aureus (ATCC 29213); type: cell-based; conditions: ATCC 29213, 2 h; for percent of killing of S. aureus: 16 μg/ml; for killing activity against S. aureus retained at 150 mM NaCl: 64 μg/ml
# Experimental: as §2
# [6] = system: Escherichia coli (ATCC 25922); type: cell-based; conditions: ATCC 25922, 2 h, 16 μg/ml
# Experimental: as §2
# [7] = system: Pseudomonas aeruginosa (ATCC 27853); type: cell-based; conditions: ATCC 27853, 2 h; for percent of killing of P. aeruginosa: 16 μg/ml; for killing potency against P. aeruginosa retained at 150 mM NaCl: 32 μg/ml
# Experimental: as §2
# [8] = 100× diluted Muller Hinton II broth, 5 mM NaCl, 5 × 10^5 CFU/ml, 37 °C, 24 h, triplicate
# [9] = CLSI, standard Muller Hinton II broth, 5 × 10^5 CFU/ml, 37 °C, 24 h, triplicate
# [10] = sub-culture of clear MIC-ls wells on LB agar, lowest concentration inhibiting more than 99% of growth, triplicate
Substance,chemotactic activity for JAWSII cells (in words) ([3]; n = 5),"MBC-ls S. Typhimurium (ATCC 14028) ([1]; ATCC 14028, 24 h)","MIC-ls S. Typhimurium (ATCC 14028) ([1]; ATCC 14028, 24 h)","MBC-ls P. aeruginosa (ATCC 27853) ([2]; ATCC 27853, 24 h)","MIC-ls P. aeruginosa (ATCC 27853) ([2]; ATCC 27853, 24 h)","MBC-ls S. aureus (ATCC 29213) (S. aureus (ATCC 29213); ATCC 29213, 24 h)","MIC-ls S. aureus (ATCC 29213) (S. aureus (ATCC 29213); ATCC 29213, 24 h)","MBC-ls E. coli (ATCC 25922) (E. coli (ATCC 25922); ATCC 25922, 24 h)","MIC-ls E. coli (ATCC 25922) (E. coli (ATCC 25922); ATCC 25922, 24 h)",percent of killing of S. aureus [5],percent of killing of E. coli [6],percent of killing of P. aeruginosa [7],percent of killing of S. Typhimurium [4],also measured
"GPDSC^1NHDRGLC^2RVGNC^3NPGEYLAKYC^4FEPVILC^5C^6VRNRWA (bicyclic or more) [AvBD-12/6, group 3 hybrid peptide: backbone of AvBD-12 with amino acid residues of AvBD-6]",retained the chemotactic function,,,,,,,,,,,,,"MIC-ls S. Typhimurium (ATCC 14028) [1, 8]: 16 µg/mL; MIC S. Typhimurium (ATCC 14028) [1, 9]: >256 µg/mL; MBC-ls S. Typhimurium (ATCC 14028) [1, 10]: 64 µg/mL; MIC-ls P. aeruginosa (ATCC 27853) [2, 8]: 64 µg/mL; MIC P. aeruginosa (ATCC 27853) [2, 9]: >256 µg/mL; MBC-ls P. aeruginosa (ATCC 27853) [2, 10]: 256 µg/mL; metabolic activity (viability relative to untreated control), CHO-K1 (CHO-K1 cells): No significant difference was found; MIC-ls S. aureus (ATCC 29213) (S. aureus (ATCC 29213); [8]): 256 µg/mL; MIC S. aureus (ATCC 29213) (S. aureus (ATCC 29213); [9]): 256 µg/mL; MBC-ls S. aureus (ATCC 29213) (S. aureus (ATCC 29213); [10]): 256 µg/mL; MIC-ls E. coli (ATCC 25922) (E. coli (ATCC 25922); [8]): 8 µg/mL; MIC E. coli (ATCC 25922) (E. coli (ATCC 25922); [9]): 256 µg/mL; MBC-ls E. coli (ATCC 25922) (E. coli (ATCC 25922); [10]): 32 µg/mL"
"GPDS[Abu]NHDRGLCRVGNCNPGEYLAKYCFEPVIL[Abu]CKPLSPTPTKT (disulfide 12-27, 17-35) [AvBD-12A4]",,>256 µg/mL,256 µg/mL,>256 µg/mL,256 µg/mL,>256 µg/mL,>256 µg/mL,>256 µg/mL,128 µg/mL,,,,,"killing activity against S. Typhimurium compared with AvBD-12 (in words) ([4]; 2 to 128 μg/ml, 2 h at 37 °C, p < 0.05, Fig. 4): weaker action than AvBD-12"
GPDS[Abu]NHDRGL[Abu]RVGNCNPGEYLAKY[Abu]FEPVIL[Abu]CKPLSPTPTKT (disulfide 17-35) [AvBD-12A5],lost their chemotactic activity,>256 µg/mL,256 µg/mL,>256 µg/mL,256 µg/mL,>256 µg/mL,>256 µg/mL,256 µg/mL,64 µg/mL,,,,,
GPDS[Abu]NHDRGL[Abu]RVGN[Abu]NPGEYLAKY[Abu]FEPVIL[Abu][Abu]KPLSPTPTKT [AvBD-12A6],lost their chemotactic activity,>256 µg/mL,256 µg/mL,>256 µg/mL,256 µg/mL,>256 µg/mL,>256 µg/mL,256 µg/mL,64 µg/mL,,,,,
GPHSANHVRGLARVGNANPGLYLAKYAFIPVILAAKPLSPTPTKT [AvBD-12A1],,128 µg/mL,32 µg/mL,256 µg/mL,32 µg/mL,>256 µg/mL,256 µg/mL,32 µg/mL,8 µg/mL,77.2%,88.6%,72.3%,95.6%,
GPRSANHKRGLARVGNANPGKYLAKYSFRPVILSSKPLSPTPTKT [AvBD-12A3],,64 µg/mL,16 µg/mL,16 µg/mL,8 µg/mL,256 µg/mL,128 µg/mL,16 µg/mL,4 µg/mL,91.7%,100%,100%,93.9%,"MIC S. Typhimurium (ATCC 14028) ([1]; ATCC 14028, 24 h): >256 µg/mL; MIC P. aeruginosa (ATCC 27853) ([2]; ATCC 27853, 24 h): >256 µg/mL; metabolic activity (viability relative to untreated control), CHO-K1 (CHO-K1 cells): No significant difference was found; chemotactic index (C.I.) for JAWSII cells ([3]; peptide 64 μg/ml, migrated cells with peptide / with chemotactic buffer, n = 5): 3.74; chemotactic activity for JAWSII cells, % of wild type ([3]; peptide 64 μg/ml, relative to AvBD-12): 56.6 % of wild type; MIC S. aureus (ATCC 29213) (S. aureus (ATCC 29213); ATCC 29213, 24 h): >256 µg/mL; MIC E. coli (ATCC 25922) (E. coli (ATCC 25922); ATCC 25922, 24 h): 128 µg/mL; killing activity against S. aureus retained at 150 mM NaCl [5]: 30-60%; killing potency against E. coli retained at 150 mM NaCl [6]: approximately 80%; killing potency against P. aeruginosa retained at 150 mM NaCl [7]: approximately 80%; killing activity against S. Typhimurium retained at 150 mM NaCl [4]: 30-60%"
GPRSSNHKRGLSRVGNSNPGKYLAKYAFRPVILAAKPLSPTPTKT [AvBD-12A2],,64 µg/mL,16 µg/mL,32 µg/mL,16 µg/mL,256 µg/mL,256 µg/mL,16 µg/mL,4 µg/mL,83.1%,100%,98%,93.9%,killing activity against S. aureus retained at 150 mM NaCl [5]: 30-60%; killing potency against E. coli retained at 150 mM NaCl [6]: approximately 80%; killing potency against P. aeruginosa retained at 150 mM NaCl [7]: approximately 80%; killing activity against S. Typhimurium retained at 150 mM NaCl [4]: 30-60%

# Source: publication PMC5324278, “Novel synthetic analogues of avian β-defensin-12: the role of charge, hydrophobicity, and disulfide bridges in biological functions” (BMC Microbiology, 2017)
